# Experimental data from patent publication US12383528B2, “Cromolyn esters and uses thereof” (The General Hospital Corporation, priority 2018, dated 2025).
# Tests used:
# [1] = Brain positron emission tomography (PET) imaging study, dynamic PET; assay type: in vivo; settings: rhesus monkey PET; for order of brain tracer penetration: three 18F-cromolyn analogs compared
# Experimental: Dynamic PET imaging (GE Discovery MI Scanner) in a rhesus monkey was performed with compound 5 (diethyl ester), compound 6 (di-tert-butyl ester), and ^18F-Cromolyn (diacid).
# [2] = Measured log D (lipophilicity); assay type: physicochemical
SMILES,order of brain tracer penetration [1],regional brain uptake [1],time of maximum brain uptake [1] [min],washout from brain [1],maximum brain uptake ([1]; at 2 min) [SUV],brain uptake during washout ([1]; at 20 min) [SUV],brain uptake during washout ([1]; at 60 min) [SUV],logD [2]
"O=C(O)c1cc(=O)c2c(OCC([18F])COc3cccc4oc(C(=O)O)cc(=O)c34)cccc2o1 [^18F-Cromolyn (diacid), reference compound]",diethyl ester>di-tert-butyl ester>diacid,–,–,–,–,–,–,–
CCOC(=O)c1cc(=O)c2c(OCC([18F])COc3cccc4oc(C(=O)OCC)cc(=O)c34)cccc2o1 [Compound 5],diethyl ester>di-tert-butyl ester>diacid,"uptake in all regions of the brain with the highest in putamen, grey matter and cerebellum followed by caudate, thalamus and white matter",2,washout was slow,2.3,2,1.5,2.5
CC(C)(C)OC(=O)c1cc(=O)c2c(OCC([18F])COc3cccc4oc(C(=O)OC(C)(C)C)cc(=O)c34)cccc2o1 [Compound 6],diethyl ester>di-tert-butyl ester>diacid,–,–,–,–,–,–,3.5
